target: T1, CRF1 receptors (Homo sapiens, UniProt P34998); assay: CRF1 receptor radioligand binding assay ([125I]-oCRF competition, IMR-32 cell membranes); details: not given
T1 construct: endogenous in cells; host or cells: IMR-32 cells, transformed with 2.5 µM 5'-bromo-2'-deoxyuridine for 10 days; membrane preparation
T1 sequence (P34998 24-415): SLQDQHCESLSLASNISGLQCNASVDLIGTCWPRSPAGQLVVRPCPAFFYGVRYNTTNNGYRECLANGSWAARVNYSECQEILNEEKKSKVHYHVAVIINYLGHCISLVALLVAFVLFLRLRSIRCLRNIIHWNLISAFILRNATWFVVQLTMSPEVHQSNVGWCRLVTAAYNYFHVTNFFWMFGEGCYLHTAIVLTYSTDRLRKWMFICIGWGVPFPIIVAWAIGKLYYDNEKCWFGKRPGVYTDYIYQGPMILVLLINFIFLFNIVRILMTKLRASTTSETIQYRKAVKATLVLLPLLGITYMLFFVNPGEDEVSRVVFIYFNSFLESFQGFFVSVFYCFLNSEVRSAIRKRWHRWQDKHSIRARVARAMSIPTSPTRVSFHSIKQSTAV
Procedure, shortened: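 Buffer: Tris pH 7.2 with MgCl2, BSA, Triton X-100, aprotinin, leupeptin; reaction stopped with ice-cold wash and filtered. Nonspecific binding set with 10 μM oCRF.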

| Compound | Ki [nM] |
| --- | --- |
| Cc1cc(C)c(-n2c3ccccc3n3c(CN(CC4CC4)CC(F)(F)C(F)(F)F)c(C(F)(F)F)nc23)c(C)c1 [Example 155, Cyclopropylmethyl-(2,2,3,3,3-pentafluoro-propyl)-[2-trifluoromethyl-8-(2,4,6-trimethyl-phenyl)-8H-1,3a,8-triaza-cyclopenta[α]inden-3-ylmethyl]-amine] | < 100 |

same assay, conditions: IMR-32 cell membranes, [125I]-oCRF 100 pM; read-out: Ki (CRF-1R)

| Compound | Ki [nM] |
| --- | --- |
| Cc1cc(C)c(-n2c3ccccc3n3c(CN(CC4CC4)CC(F)(F)F)c(C(F)(F)F)nc23)c(C)c1 [Example 150] | < 100 |
| Cc1cc(C)c(-n2c3ccccc3n3c(CN(CC4CC4)CC4CC4)c(C(F)(F)F)nc23)c(C)c1 [Example 151, Bis-cyclopropylmethyl-[2-trifluoromethyl-8-(2,4,6-trimethyl-phenyl)-8H-1,3a,8-triaza-cyclopenta[α]inden-3-ylmethyl]-amine] | < 100 |
| Cc1cc(C)c(-n2c3ccccc3n3c(CN(CCC(F)(F)F)CC4CC4)c(C(F)(F)F)nc23)c(C)c1 [Example 152, Cyclopropylmethyl-[2-trifluoromethyl-8-(2,4,6-trimethyl-phenyl)-8H-1,3a,8-triaza-cyclopenta[α]inden-3-ylmethyl]-(3,3,3-trifluoro-propyl)-amine] | < 100 |
| CCCN(Cc1c(C(F)(F)F)nc2n(-c3c(C)cc(C)cc3C)c3ccccc3n12)CC1CCC1 [Example 153, Cyclobutylmethyl-propyl-[2-trifluoromethyl-8-(2,4,6-trimethyl-phenyl)-8H-1,3a,8-triaza-cyclopenta[α]inden-3-ylmethyl]-amine] | < 100 |
| CCN(Cc1c(C(F)(F)F)nc2n(-c3c(C)cc(C)cc3C)c3ccccc3n12)CC1CC1 [Example 154, Cyclopropylmethyl-ethyl-[2-trifluoromethyl-8-(2,4,6-trimethyl-phenyl)-8H-1,3a,8-triaza-cyclopenta[α]inden-3-ylmethyl]-amine] | < 100 |
| Cc1cc(C)c(-n2c3ccccc3n3c(CN(CC4CCC4)CC(F)(F)F)c(C(F)(F)F)nc23)c(C)c1 [Example 156, Cyclobutylmethyl-(2,2,2-trifluoro-ethyl)-[2-trifluoromethyl-8-(2,4,6-trimethyl-phenyl)-8H-1,3a,8-triaza-cyclopenta[α]inden-3-ylmethyl]-amine] | < 100 |
| CCCN(CCC(F)(F)F)Cc1c(C(F)(F)F)nc2n(-c3c(C)cc(C)cc3C)c3ccccc3n12 [Example 157, Propyl-[2-trifluoromethyl-8-(2,4,6-trimethyl-phenyl)-8H-1,3a,8-triaza-cyclopenta[α]inden-3-ylmethyl]-(3,3,3-trifluoro-propyl)-amine] | < 100 |
| CCCN(Cc1c(C(F)(F)F)nc2n(-c3c(C)cc(C)cc3C)c3ccccc3n12)CC(F)(F)C(F)(F)F [Example 158, (2,2,3,3,3-Pentafluoro-propyl)-propyl-[2-trifluoromethyl-8-(2,4,6-trimethyl-phenyl)-8H-1,3a,8-triaza-cyclopenta[α]inden-3-ylmethyl]-amine] | < 100 |
| CCCN(Cc1c(C(F)(F)F)nc2n(-c3c(C)cc(C)cc3C)c3ccccc3n12)CC(F)(F)F [Example 159, Propyl-(2,2,2-trifluoro-ethyl)-[2-trifluoromethyl-8-(2,4,6-trimethyl-phenyl)-8H-1,3a,8-triaza-cyclopenta[α]inden-3-ylmethyl]-amine] | < 100 |
| C=CCN(CC=C)Cc1c(C(F)(F)F)nc2n(-c3c(C)cc(C)cc3C)c3ccccc3n12 [Example 160, Diallyl-[2-trifluoromethyl-8-(2,4,6-trimethyl-phenyl)-8H-1,3a,8-triaza-cyclopenta[α]inden-3-ylmethyl]-amine] | < 1000 |
| CCCN(CCc1ccccc1)Cc1c(C(F)(F)F)nc2n(-c3c(C)cc(C)cc3C)c3ccccc3n12 [Example 161, Phenethyl-propyl-[2-trifluoromethyl-8-(2,4,6-trimethyl-phenyl)-8H-1,3a,8-triaza-cyclopenta[α]inden-3-ylmethyl]-amine] | < 1000 |
| CCN(CCc1ccccc1)Cc1c(C(F)(F)F)nc2n(-c3c(C)cc(C)cc3C)c3ccccc3n12 [Example 163, Ethyl-phenethyl-[2-trifluoromethyl-8-(2,4,6-trimethyl-phenyl)-8H-1,3a,8-triaza-cyclopenta[α]inden-3-ylmethyl]-amine] | < 1000 |
| CCCN(CCC1CC1)Cc1c(C(F)(F)F)nc2n(-c3c(C)cc(C)cc3C)c3ccccc3n12 [Example 164, (2-Cyclopropyl-ethyl)-propyl-[2-trifluoromethyl-8-(2,4,6-trimethyl-phenyl)-8H-1,3a,8-triaza-cyclopenta[α]inden-3-ylmethyl]-amine] | < 1000 |
| Cc1cc(C)c(-n2c3ccccc3n3c(CN(CCC4CC4)CCC(F)(F)F)c(C(F)(F)F)nc23)c(C)c1 [Example 166, (2-Cyclopropyl-ethyl)-[2-trifluoromethyl-8-(2,4,6-trimethyl-phenyl)-8H-1,3a,8-triaza-cyclopenta[α]inden-3-ylmethyl]-(3,3,3-trifluoro-propyl)-amine] | < 1000 |
| Cc1cc(C)c(-n2c3ccccc3n3c(CN(C)Cc4ccccc4)c(C(F)(F)F)nc23)c(C)c1 [Example 167, Benzyl-methyl-[2-trifluoromethyl-8-(2,4,6-trimethyl-phenyl)-8H-1,3a,8-triaza-cyclopenta[α]inden-3-ylmethyl]-amine] | < 1000 |
| Cc1cc(C)c(-n2c3ccccc3n3c(CN(CCC4CC4)CC(F)(F)F)c(C(F)(F)F)nc23)c(C)c1 [Example 169, (2-Cyclopropyl-ethyl)-(2,2,2-trifluoro-ethyl)-[2-trifluoromethyl-8-(2,4,6-trimethyl-phenyl)-8H-1,3a,8-triaza-cyclopenta[α]inden-3-ylmethyl]-amine] | < 1000 |
| CCCCN(CC)Cc1c(C(F)(F)F)nc2n(-c3c(C)cc(C)cc3C)c3ccccc3n12 [Example 170, Butyl-ethyl-[2-trifluoromethyl-8-(2,4,6-trimethyl-phenyl)-8H-1,3a,8-triaza-cyclopenta[α]inden-3-ylmethyl]-amine] | < 1000 |
| Cc1cc(C)c(-n2c3ccccc3n3c(CN(CCc4ccccc4)CC(F)(F)F)c(C(F)(F)F)nc23)c(C)c1 [Example 171, Phenethyl-(2,2,2-trifluoro-ethyl)-[2-trifluoromethyl-8-(2,4,6-trimethyl-phenyl)-8H-1,3a,8-triaza-cyclopenta[α]inden-3-ylmethyl]-amine] | < 1000 |
| CCN(CCC1CC1)Cc1c(C(F)(F)F)nc2n(-c3c(C)cc(C)cc3C)c3ccccc3n12 [Example 172, (2-Cyclopropyl-ethyl)-ethyl-[2-trifluoromethyl-8-(2,4,6-trimethyl-phenyl)-8H-1,3a,8-triaza-cyclopenta[α]inden-3-ylmethyl]-amine] | < 10000 |
| CCN(Cc1ccccc1)Cc1c(C(F)(F)F)nc2n(-c3c(C)cc(C)cc3C)c3ccccc3n12 [Example 173, Benzyl-ethyl-[2-trifluoromethyl-8-(2,4,6-trimethyl-phenyl)-8H-1,3a,8-triaza-cyclopenta[α]inden-3-ylmethyl]-amine] | < 10000 |
| CCN(CCc1ccccc1)Cc1c(C(F)(F)F)nc2n(-c3c(C)cc(C)cc3C)c3ccccc3n12 [Example 174, Ethyl-phenethyl-[2-trifluoromethyl-8-(2,4,6-trimethyl-phenyl)-8H-1,3a,8-triaza-cyclopenta[α]inden-3-ylmethyl]-amine] | < 10000 |
| CCCN(Cc1ccccc1)Cc1c(C(F)(F)F)nc2n(-c3c(C)cc(C)cc3C)c3ccccc3n12 [Example 175, Benzyl-propyl-[2-trifluoromethyl-8-(2,4,6-trimethyl-phenyl)-8H-1,3a,8-triaza-cyclopenta[α]inden-3-ylmethyl]-amine] | < 10000 |
| CCCCN(Cc1ccccc1)Cc1c(C(F)(F)F)nc2n(-c3c(C)cc(C)cc3C)c3ccccc3n12 [Example 176, Benzyl-butyl-[2-trifluoromethyl-8-(2,4,6-trimethyl-phenyl)-8H-1,3a,8-triaza-cyclopenta[α]inden-3-ylmethyl]-amine] | < 10000 |
| FC(F)(F)c1nc2n(-c3ccc(Cl)cc3Cl)c3ccccc3n2c1CN(CC1CC1)CC1CC1 [Example 177, Bis-cyclopropylmethyl-[8-(2,4-dichloro-phenyl)-2-trifluoromethyl-8H-1,3a,8-triaza-cyclopenta[α]inden-3-ylmethyl]-amine] | < 1000 |
| CCCN(Cc1c(C(F)(F)F)nc2n(-c3ccc(Cl)cc3Cl)c3ccccc3n12)CC1CC1 [Example 178, Cyclopropylmethyl-[8-(2,4-dichloro-phenyl)-2-trifluoromethyl-8H-1,3a,8-triaza-cyclopenta[α]inden-3-ylmethyl]-propyl-amine] | < 1000 |
| FC(F)(F)CN(Cc1c(C(F)(F)F)nc2n(-c3ccc(Cl)cc3Cl)c3ccccc3n12)CC1CC1 [Example 179, Cyclopropylmethyl-[8-(2,4-dichloro-phenyl)-2-trifluoromethyl-8H-1,3a,8-triaza-cyclopenta[α]inden-3-ylmethyl]-(2,2,2-trifluoro-ethyl)-amine] | < 1000 |
| FC(F)(F)CCN(Cc1c(C(F)(F)F)nc2n(-c3ccc(Cl)cc3Cl)c3ccccc3n12)CC1CC1 [Example 180, Cyclopropylmethyl-[8-(2,4-dichloro-phenyl)-2-trifluoromethyl-8H-1,3a,8-triaza-cyclopenta[α]inden-3-ylmethyl]-(3,3,3-trifluoro-propyl)-amine] | < 10000 |
| CCN(Cc1c(C(F)(F)F)nc2n(-c3ccc(Cl)cc3Cl)c3ccccc3n12)CC1CC1 [Example 181, Cyclopropylmethyl-[8-(2,4-dichloro-phenyl)-2-trifluoromethyl-8H-1,3a,8-triaza-cyclopenta[α]inden-3-ylmethyl]-ethyl-amine] | < 10000 |

From patent US7125990B2, “Imidazolyl derivatives as corticotropin releasing factor inhibitors” (Bristol-Myers Squibb COmpany, priority 2001, dated 2006)
